# Laboratory results: patent US11903983B2, “Composition comprising new Lactobacillus salivarius strains and method for the prevention and treatment of otitis and upper respiratory infections” (priority 2018, dated 2024)
# Tested on: L. salivarius PS7
# Assay: Antibiogram: MIC by VetMIC microdilution and E-test
# Assay type: cell-based, Lactobacillus salivarius
# Details: not given
# Procedure: The suspension was further adjusted to 3×10^5 CFU/ml with LSM, and 100 μl were inoculated to wells of microtiter VetMIC plates for lactic acid bacteria (National Veterinary Institute of Sweden, Uppsala, Sweden). The plates were incubated at 37° C. for 48 h and the MIC was defined as the lowest concentration at which no growth was observed.
# Parallel, minimum inhibitory concentrations (MICs) were also determined by the E-test (AB BIODISK, Solna, Sweden) following the instructions of the manufacturer. Briefly, after overnight incubation, agar cultures were checked for purity. For inoculums preparation, individual colonies were suspended in a sterile glass culture tube containing 5 ml sterile saline (0.85% NaCl solution) until a density corresponding to a McFarland (McF) standard of 0.5 was obtained. A sterile cotton swab was dipped into the standardized inoculum and used to inoculate an agar plate. Inoculated plates were allowed to dry for approximately 15 min before application of the E-test strips with preformed antimicrobial gradients. […] For bacteriostatic agents (e.g., tetracycline, erythromycin and clindamycin), the MIC was read at the point where growth was inhibited by 80% (i.e., the first point of significant inhibition as judged by the naked eye).
# Results from the different antibiotic susceptibility tests were interpreted according to the cut-off levels proposed by the European Food Safety Authority (EFSA, 2012).
row,Molecule,antibiotic susceptibility of L. salivarius PS7 according to EFSA cut-off levels
1,CN[C@H](CC(C)C)C(=O)N[C@H]1C(=O)N[C@@H](CC(N)=O)C(=O)N[C@H]2C(=O)N[C@H]3C(=O)N[C@H](C(=O)N[C@H](C(=O)O)c4cc(O)cc(O)c4-c4cc3ccc4O)[C@H](O)c3ccc(c(Cl)c3)Oc3cc2cc(c3O[C@@H]2O[C@H](CO)[C@@H](O)[C@H](O)[C@H]2O[C@H]2C[C@](C)(N)[C@H](O)[C@H](C)O2)Oc2ccc(cc2Cl)[C@H]1O [Vancomycin],intrinsically resistant

# Same assay, conditions: Ligilactobacillus salivarius, PS7, read-out: MICs (L. salivarius PS7)
row,Molecule,MIC
1,CC1(C)S[C@@H]2[C@H](NC(=O)[C@H](N)c3ccccc3)C(=O)N2[C@H]1C(=O)O [Ampicillin],0.5 µg/mL
2,O=C(N[C@H](CO)[C@H](O)c1ccc([N+](=O)[O-])cc1)C(Cl)Cl [Chloramphenicol],2 µg/mL
3,CCC[C@@H]1C[C@@H](C(=O)N[C@@H]([C@H]2O[C@H](SC)[C@H](O)[C@@H](O)[C@H]2O)[C@H](C)Cl)N(C)C1 [Clindamycin],0.5 µg/mL
4,CC[C@H]1OC(=O)[C@H](C)[C@@H](O[C@H]2C[C@@](C)(OC)[C@@H](O)[C@H](C)O2)[C@H](C)[C@@H](O[C@@H]2O[C@H](C)C[C@H](N(C)C)[C@H]2O)[C@](C)(O)C[C@@H](C)C(=O)[C@H](C)[C@@H](O)[C@]1(C)O [Erythromycin],0.12 µg/mL
5,NC[C@H]1O[C@H](O[C@H]2[C@H](O)[C@@H](O[C@H]3O[C@H](CO)[C@@H](O)[C@H](N)[C@H]3O)[C@H](N)C[C@@H]2N)[C@H](O)[C@@H](O)[C@@H]1O [Kanamycin],128 µg/mL
6,CC(=O)NC[C@H]1CN(c2ccc(N3CCOCC3)c(F)c2)C(=O)O1 [Linezolid],1 µg/mL
7,[H]/N=C(/N)N[C@H]1[C@H](O)[C@@H](O)[C@H](O[C@@H]2O[C@@H](C)[C@](O)(C=O)[C@H]2O[C@@H]2O[C@@H](CO)[C@H](O)[C@@H](O)[C@@H]2NC)[C@@H](N/C(N)=N\[H])[C@@H]1O [Streptomycin],32 µg/mL
8,CN[C@H](CC(C)C)C(=O)N[C@H]1C(=O)N[C@@H](CC(N)=O)C(=O)N[C@H]2C(=O)N[C@H]3C(=O)N[C@H](C(=O)N[C@H](C(=O)O)c4cc(O)cc(O)c4-c4cc3ccc4O)[C@H](O)c3ccc(c(Cl)c3)Oc3cc2cc(c3O[C@@H]2O[C@H](CO)[C@@H](O)[C@H](O)[C@H]2O[C@H]2C[C@](C)(N)[C@H](O)[C@H](C)O2)Oc2ccc(cc2Cl)[C@H]1O [Vancomycin],> 128 µg/mL

# Same assay, conditions: antibiotic against L. salivarius PS7
row,Molecule,MICs (L. salivarius PS7)
1,CN(C)[C@@H]1C(=O)C(C(N)=O)=C(O)[C@@]2(O)C(=O)C3=C(O)c4c(O)cccc4[C@@](C)(O)[C@H]3C[C@@H]12 [Tetracyclin],2 µg/mL
2,Gentamicin,0.12 µg/mL
3,Penicillin,0.25 µg/mL
